According to US20230203060A1 (GENFLEET THERAPEUTICS (SHANGHAI) INC., priority 2020, published 2023):

How the values were obtained:
Format in all cases: cell-based, human
[1] = tested on: A549 cells (KRAS G12S mutant); experiment: Cell proliferation inhibition experiment, 3D spheroid, CellTiter-Glo, A549; conditions: Homo sapiens, A549, 120 h, A549 (KRAS G12S mutant) 3D spheroid, 5 days with compound, CellTiter-Glo; read-out: A549 IC50
Method in brief: (§1)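 NCI-H358 (800 cells/well, RPMI-1640) and A549 (400 cells/well, F-12K) grown overnight as 3D spheroids in 2% FBS medium, then exposed 5 days to 3.16-fold compound dilutions at 0.1% DMSO. Viability measured by CellTiter-Glo luminescence; inhibition relative to DMSO and medium blank, IC50 from four-parameter fit.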

[2] = tested on: KRAS G12C mutant MIA PaCa-2 cells; experiment: Cell proliferation inhibition experiment, 3D spheroid, CellTiter-Glo, MIA PaCa-2; conditions: Homo sapiens, MIA PaCa-2, 120 h, 3D cell model in 384-well spheroid plate, 5 days, CellTiter-Glo; read-out: MIA-PaCa2 IC50
Method in brief: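 200 MIA PaCa-2 cells/well grown overnight as 3D spheroids, then exposed to 3.16-fold compound dilutions (0.1% DMSO final) for 5 days. Viability read by CellTiter-Glo luminescence; inhibition calculated against DMSO and medium-only controls, and IC50 fitted by four-parameter model.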

[3] = tested on: KRAS G12C mutant NCI-H358 cells; experiment: Cell proliferation inhibition experiment, 3D spheroid, CellTiter-Glo, NCI-H358; conditions: Homo sapiens, NCI-H358, 120 h, NCI-H358 (KRAS G12C mutant) 3D spheroid, 5 days with compound, CellTiter-Glo; read-out: H358 IC50
Method in brief: as §1

| Structure (SMILES) | IC50 [1] | IC50 [2] | IC50 [3] |
| --- | --- | --- | --- |
| C=CC(=O)N1CCN2C(=O)c3c(N4C[C@@H](N5CC(F)C5)CC4(C)C)nc(-c4ccccc4F)c(Cl)c3OC[C@H]2C1 [Z480-1, (R)-8-acryloyl-4-chloro-1-((S)-4-(3-fluoroazetidin-1-yl)-2,2-dimethylpyrrolidin-1-yl)-3-(2-fluorophenyl)-6,6a,7,8,9,10-hexahydro-12H-pyrazino[2,1-c]pyrido[3,4-f][1,4]oxazepin-12-one] | 3980 nM | 10 nM | 3.4 nM |
| C=CC(=O)N1CCN2C(=O)c3c(N4C[C@H](N5CC(C#N)C5)CC4(C)C)nc(-c4ccccc4F)c(Cl)c3OC[C@H]2C1 (single isomer, unassigned) [Z637-1] | 2970 nM | 549 nM | 125 nM |
| C=CC(=O)N1CCN2C(=O)c3c(N4C[C@H](N5CC(C(F)(F)F)C5)CC4(C)C)nc(-c4ccccc4F)c(Cl)c3OC[C@H]2C1 (single isomer, unassigned) [Z608-1] | 2950 nM | 330 nM | 99.5 nM |
| C=CC(=O)N1CCN2C(=O)c3c(N4C[C@@H](N(C)CC(F)F)CC4(C)C)nc(-c4ccccc4F)c(Cl)c3OC[C@H]2C1 (single isomer, unassigned) [Z659-1] | 6180 nM | 16 nM | 5 nM |
| C=CC(=O)N1CCN2C(=O)c3c(N4C[C@@H](N(C)C)CC4(C)C)nc(-c4c(F)ccc(F)c4O)c(Cl)c3OC[C@H]2C1 [Z475-1, (6aR)-8-acryloyl-4-chloro-3-(3,6-difluoro-2-hydroxyphenyl)-1-((S)-4-(dimethylamino)-2,2-dimethylpyrrolidin-1-yl)-6,6a,7,8,9,10-hexahydro-12H-pyrazino[2,1-c]pyrido[3,4-f][1,4]oxazepin-12-one] | 5170 nM | 5 nM | 2 nM |
| C=CC(=O)N1CCN2C(=O)c3c(N4C[C@@H](N5CCN(C)CC5)CC4(C)C)nc(-c4ccccc4F)c(Cl)c3OC[C@H]2C1 (single isomer, unassigned) [Z454-1] | 2630 nM | 3.5 nM | 1.2 nM |
| C=CC(=O)N1CCN2C(=O)c3c(N4C[C@H](N5CCN(C)CC5)CC4(C)C)nc(-c4c(O)cccc4F)c(Cl)c3OC[C@H]2C1 (single isomer, unassigned) [Z469-2] | 8460 nM | 4 nM | 2 nM |
| C=CC(=O)N1CCN2C(=O)c3c(N4C[C@@H](N5CCN(C)CC5)CC4(C)C)nc(-c4ccccc4F)c(F)c3OC[C@H]2C1 (single isomer, unassigned) [Z474-1] | 7950 nM | 13 nM | 8.3 nM |

Results, then the compound that gave them:

| IC50 [1] | IC50 [2] | IC50 [3] | Structure (SMILES) |
| --- | --- | --- | --- |
| 9310 nM | 53 nM | 27.5 nM | C=CC(=O)N1CCN2C(=O)c3c(N4CCN(C)[C@@H](C)[C@@H]4C)nc(-c4ccccc4F)c(Cl)c3OC[C@H]2C1 [Z653, (R)-8-acryloyl-4-chloro-3-(2-fluorophenyl)-1-((2S,3S)-2,3,4-trimethylpiperazin-1-yl)-6,6a,7,8,9,10-hexahydro-12H-pyrazino[2,1-c]pyrido[3,4-f][1,4]oxazepin-12 (6aH)-one] |
| 8160 nM | 43 nM | 19.3 nM | C=CC(=O)N1CCN2C(=O)c3c(N4CCN(C)C[C@@H]4C)nc(-c4c(F)cccc4Cl)c(Cl)c3OC[C@H]2C1 [Z547, (6aR)-8-acryloyl-4-chloro-3-(2-chloro-6-fluorophenyl)-1-((S)-2,4-dimethylpiperazin-1-yl)-6,6a,7,8,9,10-hexahydro-12H-pyrazino[2,1-c]pyrido[3,4-f][1,4]oxazepin-12-one] |
| 6700 nM | 17 nM | 9 nM | C=CC(=O)N1CCN2C(=O)c3c(N4CC(N5CCN(C)CC5)CC4(C)C)nc(-c4ccccc4F)c(F)c3OC[C@H]2C1 (stereo partly drawn) [Z474, (6aR)-8-acryloyl-1-(2,2-dimethyl-4-(4-methylpiperazin-1-yl)pyrrolidin-1-yl)-4-fluoro-3-(2-fluorophenyl)-6,6a,7,8,9,10-hexahydro-12H-pyrazino[2,1-c]pyrido[3,4-f][1,4]oxazepin-12-one] |
